Measured values as given in the supplement of paper PMC13380429.
± gives the standard deviation of the averaged measurements.

What was measured:
Conditions in all cases: 72 h
Caco-2 [1] = experiment: cell viability relative to DMSO; higher = less toxic
Calu-3 [2] = experiment: as above
HepG2 [3] = experiment: as above
U2OS [4] = experiment: as above
Vero E6 [5] = experiment: as above
Caco-2 [6] = experiment: relative viability EC50 (midpoint between 100% and the lowest measured viability); higher = less toxic
Calu-3 [7] = experiment: as above
HepG2 [8] = experiment: as above
U2OS [9] = experiment: as above
Vero E6 [10] = experiment: as above
Caco-2 [11] = experiment: drug sensitivity score (DSS) for viability; higher = more toxic; extreme values may be limits of the assay
Calu-3 [12] = experiment: as above
HepG2 [13] = experiment: as above
U2OS [14] = experiment: as above
Vero E6 [15] = experiment: as above

Compound | cell viability (Caco-2 [1]; 1 nM) [%] | cell viability (Caco-2 [1]; 10 nM) [%] | cell viability (Caco-2 [1]; 100 nM) [%] | cell viability (Caco-2 [1]; 1000 nM) [%] | cell viability (Caco-2 [1]; 10000 nM) [%] | cell viability (Calu-3 [2]; 1 nM) [%] | cell viability (Calu-3 [2]; 10 nM) [%] | cell viability (Calu-3 [2]; 100 nM) [%] | cell viability (Calu-3 [2]; 1000 nM) [%] | cell viability (Calu-3 [2]; 10000 nM) [%] | cell viability (HepG2 [3]; 1 nM) [%] | cell viability (HepG2 [3]; 10 nM) [%] | cell viability (HepG2 [3]; 100 nM) [%] | cell viability (HepG2 [3]; 1000 nM) [%] | cell viability (HepG2 [3]; 10000 nM) [%] | cell viability (U2OS [4]; 1 nM) [%] | cell viability (U2OS [4]; 10 nM) [%] | cell viability (U2OS [4]; 100 nM) [%] | cell viability (U2OS [4]; 1000 nM) [%] | cell viability (U2OS [4]; 10000 nM) [%] | cell viability (Vero E6 [5]; 1 nM) [%] | cell viability (Vero E6 [5]; 10 nM) [%] | cell viability (Vero E6 [5]; 100 nM) [%] | cell viability (Vero E6 [5]; 1000 nM) [%] | cell viability (Vero E6 [5]; 10000 nM) [%] | relative viability EC50 (Caco-2 [6]) [µM] | relative viability EC50 (Calu-3 [7]) [µM] | relative viability EC50 (HepG2 [8]) [µM] | relative viability EC50 (U2OS [9]) [µM] | relative viability EC50 (Vero E6 [10]) [µM] | drug sensitivity score (Caco-2 [11]) | drug sensitivity score (Calu-3 [12]) | drug sensitivity score (HepG2 [13]) | drug sensitivity score (U2OS [14]) | drug sensitivity score (Vero E6 [15])
CCc1c(C(=O)Nc2cc(S(=O)(=O)N(CC)CC)ccc2O)[nH]c(C)c1C(C)=O [XD-14] | 101 | 93.5 | 97.2 | 98.8 | 80.8 | 111 | 89.2 | 104 | 103 | 108 | 96.8 | 106 | 116 | 97.6 | 84.6 | 99.3 | 93 | 95.6 | 100 | 87.4 | 96 | 102 | 89.5 | 91.5 | 95.9 | > 10 | > 10 | > 10 | > 10 | > 10 | 0.7 | 0 | 0.5 | 0.1 | 0.2
CC[C@@H](C)Nc1cc(C(=O)N[C@H]2C[C@H]3CC[C@@H](C2)N3c2ccc(C(=O)C3CC3)cn2)c(C)cc1C(N)=O [XL888] | 104 | 94.3 | 59.3 | 32.8 | 35.2 | 92.4 | 101 | 53.6 | 43.1 | 38.7 | 108 | 93.4 | 4.8 | 1.3 | 1 | 97.2 | 104 | 43.4 | 4.3 | 3.4 | 104 | 104 | 99.8 | 30.4 | 52.4 | 0.071 | 0.0636 | 0.0285 | 0.0872 | 0.315 | 17.3 | 16.8 | 30.8 | 24.2 | 12.7
N=C(N)S/C=C\C(=O)O [ZAPA] | 91.1 | 96 | 91.3 | 104 | 106 | 83 | 103 | 101 | 103 | 95.5 | 96 | 95.5 | 104 | 89.3 | 102 | 92.8 | 97.7 | 95.6 | 100 | 101 | 98.3 | 97.1 | 94.8 | 95 | 106 | > 10 | > 10 | > 10 | > 10 | > 10 | 0 | 0 | 0 | 0 | 0
Cc1ccc(-c2ccc(C)cn2)nc1 [abametapir] | 95.9 | 86.7 | 79.8 | 87 | 93.3 | 106 | 92.1 | 95.6 | 92.6 | 96.3 | 119 | 110 | 100 | 103 | 98.9 | 98.8 | 96.3 | 97.8 | 96.6 | 99 | 103 | 104 | 101 | 93.4 | 105 | > 10 | > 10 | > 10 | > 10 | > 10 | 0 | 0 | 0 | 0 | 0
CC(=O)O[C@@H]1CC[C@@]2(C)[C@@H](CC[C@]3(C)[C@@H]2C(=O)C=C2[C@@H]4[C@@H](C)[C@H](C)CC[C@]4(C)CC[C@]23C)[C@@]1(C)C(=O)O [acetyl-11-keto-beta-boswellic-acid] | 94 ± 1.4 | 109 ± 2.7 | 87.8 ± 15 | 98.1 ± 18 | 96.5 ± 4.7 | 93.5 ± 0.71 | 108 ± 3.8 | 102 ± 7.1 | 101 ± 22 | 96.5 ± 3.5 | 109 ± 7.6 | 94 ± 7.4 | 106.6 ± 0.85 | 103 ± 5.4 | 101 ± 8 | 101 ± 2.5 | 98.5 ± 2.3 | 98.7 ± 3.1 | 102 ± 4.6 | 99.5 ± 1.1 | 104 ± 7.3 | 94.4 ± 5 | 99.7 ± 8 | 102 ± 3.4 | 104 ± 3.3 | > 10 | > 10 | > 10 | > 10 | > 10 | 0 | 0 | 0 | 0 | 0
CC1(c2ccccc2)OC(C(=O)O)=CC1=O (stereo not given) [acifran] | 90.8 | 95.3 | 95.8 | 105 | 98.9 | 94.9 | 93.6 | 85.5 | 95.3 | 99.6 | 90.3 | 91.9 | 97.8 | 108 | 101 | 103 | 97.9 | 103 | 97.4 | 104 | 98.9 | 96.1 | 96.9 | 98.5 | 98 | > 10 | > 10 | > 10 | > 10 | > 10 | 0 | 0 | 0 | 0 | 0
C[n+]1c2cc(N)ccc2cc2ccc(N)cc21 [acriflavinium] | 97.4 | 91.1 | 91 | 62.3 | 37.4 | 108 | 108 | 99.3 | 94.9 | 25.8 | 84.1 | 85.9 | 88.6 | 33.1 | 1.2 | 98.7 | 101 | 99.7 | 100 | 18.2 | 96.9 | 94.8 | 103 | 82 | 49.3 | 0.594 | 2.62 | 0.516 | 3.2 | 1.27 | 8.3 | 4.9 | 14.4 | 4.5 | 5.2
O=C(CCCCCCCC(=O)NCCO)NCCO [adelmidrol] | 93.1 | 98.7 | 96.2 | 104 | 98.9 | 94.2 | 97.1 | 87.2 | 107 | 104 | 112 | 94.9 | 98.6 | 94.8 | 101 | 96.3 | 103 | 94.5 | 99.5 | 103 | 99.2 | 98.7 | 96.4 | 96 | 107 | > 10 | > 10 | > 10 | > 10 | > 10 | 0 | 0 | 0 | 0 | 0
C=CCN1CCCC1CNC(=O)c1cc2nn[nH]c2cc1OC (stereo not given) [alizapride] | 94.7 | 104 | 90.1 | 98 | 107 | 89.9 | 91.4 | 86.2 | 101 | 112 | 108 | 94.2 | 104 | 88.8 | 103 | 97.6 | 99.9 | 94.5 | 106 | 100 | 92.9 | 97.3 | 94.9 | 91.4 | 105 | > 10 | > 10 | > 10 | > 10 | > 10 | 0 | 0 | 0 | 0 | 0
CCOC(=O)[C@H]1O[C@@H]1C(=O)N[C@@H](CC(C)C)C(=O)NCCC(C)C [aloxistatin] | 97.6 | 98.8 | 90.5 | 102 | 98 | 91.7 | 99.3 | 107 | 101 | 99.5 | 118 | 102 | 96.1 | 90.7 | 88.8 | 99.6 | 102 | 94.7 | 102 | 97.6 | 106 | 109 | 108 | 102 | 99.2 | > 10 | > 10 | > 10 | > 10 | > 10 | 0 | 0 | 0.2 | 0 | 0
Nc1ccn([C@H]2CO[C@@H](CO)S2)c(=O)n1 [apricitabine] | 99.9 | 91.7 | 98.9 | 103 | 105 | 101 | 101 | 98.5 | 92.5 | 102 | 94.9 | 105 | 104 | 99.8 | 103 | 98.4 | 94.2 | 96.6 | 102 | 100 | 93.7 | 96.9 | 99.1 | 96.4 | 104 | > 10 | > 10 | > 10 | > 10 | > 10 | 0 | 0 | 0 | 0 | 0
CC1(C)S[C@@H]2[C@H](NC(=O)[C@H](NC(=O)N3CCNC3=O)c3ccccc3)C(=O)N2[C@H]1C(=O)O [azlocillin] | 105 | 93 | 91.3 | 98.8 | 98.1 | 97.1 | 100 | 93 | 98.7 | 105 | 99.1 | 88.5 | 99.3 | 93.9 | 88 | 96.6 | 100 | 93.6 | 95 | 98.6 | 95.7 | 96.8 | 96.9 | 94.2 | 98 | > 10 | > 10 | > 10 | > 10 | > 10 | 0 | 0 | 0 | 0 | 0
CC1=CC(=C(c2ccc(N)cc2)c2ccc(N)cc2)C=CC1=N [basic-fuchsin] | 88.8 | 92.4 | 106 | 77.6 | 18.6 | 92.3 | 102 | 103 | 87.1 | 19.5 | 102 | 97 | 104 | 83 | 7.8 | 97.8 | 97.9 | 95.2 | 86.5 | 12.8 | 97.2 | 91 | 94.8 | 82.3 | 29.8 | 1.47 | 1.93 | 1.81 | 1.96 | 1.54 | 7.9 | 6.6 | 7.9 | 7.1 | 6.6
O=C(c1ccc(CN2CCOCC2)cc1)N1CCN(C2CC2)CC1 [bavisant] | 104 | 102 | 97.7 | 89.6 | 98.9 | 86.9 | 95 | 87.1 | 88.9 | 89.2 | 108 | 104 | 90.6 | 107 | 94.4 | 102 | 97.6 | 103 | 101 | 99.8 | 109 | 104 | 104 | 104 | 99.6 | > 10 | > 10 | > 10 | > 10 | > 10 | 0 | 0.5 | 0 | 0 | 0
